Test results reported in patent publication US7968599B2, “Fast release solid formulation, preparation and use thereof” (Intervet International B.V., priority 2007, dated 2011).

Test: Dissolution / solubility rate profile, USP apparatus 2 with paddle agitation
Format: physicochemical
Details: Milli-Q water 25° C., paddle 50 rpm, final 0.1 mg/mL florfenicol
Experimental: To determine the solubility profile of different formulations, dissolution was performed using USP apparatus 2 with paddle agitation at 50 rpm. The dissolution medium was Milli-Q water maintained at a temperature of 25° C. The formulations were added directly to the water in the correct amount to achieve a final concentration of 0.1 mg/mL of florfenicol. Aliquots of the resulting solution were withdrawn and analyzed using either UV-VIS spectrophotometry or HPLC, the latter to exclude excipient contribution or degradation of florfenicol. For HPLC analysis, an organic/aqueous mobile phase was used for the separation on a C18, reverse phase column. Detection was performed by UV absorption spectrometry. The percent dissolved was calculated versus an external reference standard prepared at the nominal concentration of the analyte.

percent florfenicol dissolved within 15 minutes (15 minutes): approximately 25%
percent florfenicol dissolved within 60 minutes (60 minutes): approximately 43%
SMILES: CS(=O)(=O)c1ccc([C@@H](O)[C@@H](CF)NC(=O)C(Cl)Cl)cc1 (relative stereo) [florfenicol, [R-(R*,S*)]-2,2-Dichloro-N-[1-(fluoromethyl)-2-hydroxy-2-[4-(methylsulfonyl)phenyl]-ethyl]acetamide]
